{"source": "patent US20240181022A1", "about": "“AMURINS LYSINS, AND LYSIN-ANTIMICROBIAL PEPTIDE (AMP) CONSTRUCTS ACTIVE AGAINST GRAM-NEGATIVE BACTERIA” (priority 2021, published 2024)", "key": {"M. fortuitum": {"tested_on": "M. fortuitum", "assay": "MIC against M. fortuitum", "format": "cell-based, Mycobacterium fortuitum", "conditions": "M. fortuitum (ATCC 6841); CAAT media"}, "M. intracellulare": {"tested_on": "M. intracellulare", "assay": "MIC against M. intracellulare", "format": "cell-based, Mycobacterium intracellulare", "conditions": "M. intracellulare (ATCC 13950); CAAT media"}, "A. ruhlandii": {"tested_on": "A. ruhlandii", "assay": "MIC by broth microdilution against A. ruhlandii", "format": "cell-based, Achromobacter ruhlandii", "conditions": "A. ruhlandii isolates", "experimental": "(§1) MIC values were determined using a modification of the standard broth microdilution reference method defined by the Clinical and Laboratory Standards Institute (CLSI), CLSL. 2015. Methods for Dilution Antimicrobial Susceptibility Tests for Bacteria That Grow Aerobically; Approved Standard-10th Edition. Clinical and Laboratory Standards Institute, Wayne, PA. The modification was based on the replacement of Mueller Hinton Broth with either CAA media (with and without NaCl) or CAA supplemented with 2.5% human serum. MIC is the minimum concentration of peptide sufficient to suppress at least 80% of the bacterial growth compared to control.\n(§2) Based on these nine most prevalent strains, direct lytic agents, including GN370, AM1, AM2, and AM3, were evaluated against various isolates from each of the 9 strains. MICs and MBECs (Example 3) were determined, and a sputum inhibition test was conducted, as described below in Example 5.\n(§3) The MICs for were determined as described below using the broth microdilution method for meropenem, GN370, AM1, AM2, and AM3. The results are shown below in Tables 8-12."}, "M. avium": {"tested_on": "M. avium", "assay": "MIC against M. avium", "format": "cell-based, Mycobacterium avium", "conditions": "M. avium (ATCC 700898); CAAT media"}, "P. apista": {"tested_on": "P. apista", "assay": "MIC by broth microdilution against P. apista", "format": "cell-based, Pandoraea apista", "conditions": "P. apista isolates", "experimental": "as §1, §2, §3"}}, "note": "Where a SMILES comes first, the peptide text is derived from it. [ ]: non-standard residue; d: D form.", "data": [{"smiles": "CC[C@H](C)[C@H](NC(=O)[C@@H](CCCNC(=N)N)NC(=O)[C@H](Cc1ccccc1)NC(=O)CNC(=O)CNC(=O)[C@@H](CCCNC(=N)N)NC(=O)[C@H](CCSC)NC(=O)[C@@H]1CCCN1C(=O)[C@@H](CCCNC(=N)N)NC(=O)[C@H](C)NC(=O)[C@@H](CCCNC(=N)N)NC(=O)[C@H](CC(C)C)NC(=O)[C@H](CC(N)=O)NC(=O)[C@@H](CCCNC(=N)N)NC(=O)[C@@H](CCCCN)NC(=O)[C@@H](CCCCN)NC(=O)[C@@H](NC(=O)[C@H](CC(N)=O)NC(=O)[C@@H](NC(=O)[C@H](C)NC(=O)CNC(=O)[C@@H](CCCNC(=N)N)NC(=O)[C@@H](NC(=O)[C@H](Cc1ccccc1)NC(=O)[C@@H](NC(=O)[C@@H](CCCCN)NC(=O)[C@@H](CCCNC(=N)N)NC(=O)[C@H](CO)NC(=O)[C@@H](CCCCN)NC(=O)[C@@H](CCCCN)NC(=O)[C@@H](CCCCN)NC(=O)[C@H](CO)NC(=O)[C@H](CC(C)C)NC(=O)[C@@H](CCCCN)NC(=O)[C@@H](CCCNC(=N)N)NC(=O)[C@@H](CCCNC(=N)N)NC(=O)[C@@H](CCCCN)NC(=O)[C@@H](N)CCSC)[C@@H](C)CC)[C@@H](C)O)C(C)C)C(C)C)C(=O)O", "note": "[AM3] (H-M[dK][dR][dR][dK]LS[dK][dK][dK]S[dR][dK]IFT[dR]GAVNV[dK][dK][dR]NL[dR]A[dR]PM[dR]GGF[dR]I-OH; N-terminus and C-terminus assumed)", "values": [{"measurement": "MIC", "setting": "M. fortuitum", "result": 2, "unit": "µg/mL"}, {"measurement": "MIC", "setting": "M. intracellulare", "result": 2, "unit": "µg/mL"}, {"measurement": "MIC50", "setting": "A. ruhlandii", "result": 1, "unit": "µg/mL"}, {"measurement": "MIC90", "setting": "A. ruhlandii", "result": "> 128", "unit": "µg/mL"}, {"measurement": "MIC", "setting": "M. avium", "result": 1, "unit": "Tg/mL"}, {"measurement": "MIC50", "setting": "P. apista", "result": "> 128", "unit": "µg/mL"}, {"measurement": "MIC90", "setting": "P. apista", "result": "> 128", "unit": "µg/mL"}, {"measurement": "MIC50", "setting": "S. maltophilia; S. maltophilia isolates", "result": 0.5, "unit": "µg/mL"}, {"measurement": "MIC90", "setting": "S. maltophilia; S. maltophilia isolates", "result": 1, "unit": "µg/mL"}, {"measurement": "MIC Range", "setting": "S. maltophilia; S. maltophilia isolates, in µg/mL", "result": "0.016-2"}, {"measurement": "MIC", "setting": "S. maltophilia; S. maltophilia test organism of the sputum time-kill assay", "result": "AM3 (MIC = 0.25)"}, {"measurement": "activity (MIC) against S. maltophilia isolates", "setting": "S. maltophilia; all tested isolates, Tables 8-12", "result": "highly active"}, {"measurement": "MBEC50", "setting": "P. aeruginosa", "result": 0.125, "unit": "µg/mL"}, {"measurement": "MBEC90", "setting": "P. aeruginosa", "result": 1, "unit": "µg/mL"}, {"measurement": "MBEC Range", "setting": "P. aeruginosa", "result": "0.016 to 1", "unit": "µg/mL"}, {"measurement": "antibiofilm activity (MBEC) against P. aeruginosa", "setting": "P. aeruginosa; 2-hour treatments", "result": "primarily active"}]}]}
